Experiments:
[1] = tested on: HCV protease; details: cited from earlier work
[2] = target: HCV protease D168E (Hepatitis C virus genotype 1a, UniProt P27958, D1194E); test: biochemical
[3] = target: HCV protease D168Y (Hepatitis C virus genotype 1a, UniProt P27958, D1194Y); test: biochemical
[4] = target: wild-type HCV protease (Hepatitis C virus genotype 1a, UniProt P27958); format: biochemical

Structure (SMILES) | IC50 [1] | IC50 [2] | IC50 [3] | IC50 [4]
C=C[C@@H]1C[C@]1(NC(=O)[C@@H]1C[C@@H](Oc2ncc(OC)c3ccc(Cl)cc23)CN1C(=O)[C@@H](NC(=O)OC(C)(C)C)C(C)(C)C)C(=O)NS(=O)(=O)C1CC1 [asunaprevir] | ~1 nM |  |  | 
CC(C)(C)OC(=O)N[C@H]1CCCCC/C=C\[C@@H]2C[C@@]2(C(=O)NS(=O)(=O)C2CC2)NC(=O)[C@@H]2C[C@@H](OC(=O)N3Cc4cccc(F)c4C3)CN2C1=O [danoprevir] | ~0.3 nM | 38.9 ± 2.4 nM | 34.4 ± 2.8 nM | 1.3 ± 0.1 nM
